Measurements reported in BindingDB's records for doi:10.1021/jm001043t (Lawrence Berkeley National Laboratory, 2001).

Tests used:
[1] = biological target: Cyclin-dependent kinase/G2/mitotic-specific cyclin- 1 (Homo sapiens, UniProt P06493); experiment: CDK1/Cyclin B Kinase SPA Assay; conditions: pH 8; 30 °C
Description: The biochemical activity of compounds was determined by incubation with specific enzyme and substrate in the presence 0.5 uM ATP/ [gamma-33P] ATP. After incubation, the reaction was stopped and the phosphorylated substrate was separated from nonincorporated radioactive ATP using Streptavidin-coated SPA beads, counted using TopCount (Packard) to measure substrate-incorporated phosphate.

[2] = biological target: Cyclin-dependent kinase 4/G1/S-specific cyclin-D1 (Homo sapiens, UniProt P11802); experiment: CDK2/Cyclin E and CDK4/Cyclin D1 Kinase Assay; conditions: pH 7.5; 30 °C
Description: (§1) The enzyme was assayed with substrate GST-Rb in the presence of 10 uM ATP/[gamma-33P] ATP, and capturing the 33-P labeled reaction products on GSH-Sepharose beads. […] Use of 33P-labeled ATP allows this transfer to be monitored by scintillation counting.

[3] = biological target: Cyclin-dependent kinase 2/G1/S-specific cyclin-E1 (Homo sapiens, UniProt P24941); experiment: CDK2/Cyclin E and CDK4/Cyclin D1 Kinase Assay; conditions: pH 7.5; 30 °C
Description: as §1

Chain of Cyclin-dependent kinase 4/G1/S-specific cyclin-D1 (P11802 whole entry): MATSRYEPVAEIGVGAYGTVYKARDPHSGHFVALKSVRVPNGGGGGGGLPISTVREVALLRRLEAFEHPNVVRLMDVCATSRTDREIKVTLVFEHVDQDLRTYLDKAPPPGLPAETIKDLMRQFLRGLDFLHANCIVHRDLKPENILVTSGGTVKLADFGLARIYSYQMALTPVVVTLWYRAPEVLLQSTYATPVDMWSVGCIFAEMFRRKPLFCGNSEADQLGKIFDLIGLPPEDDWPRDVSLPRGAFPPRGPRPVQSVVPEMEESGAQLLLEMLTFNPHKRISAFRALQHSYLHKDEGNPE
Chain of Cyclin-dependent kinase 4/G1/S-specific cyclin-D1 (P24385 whole entry, further chain): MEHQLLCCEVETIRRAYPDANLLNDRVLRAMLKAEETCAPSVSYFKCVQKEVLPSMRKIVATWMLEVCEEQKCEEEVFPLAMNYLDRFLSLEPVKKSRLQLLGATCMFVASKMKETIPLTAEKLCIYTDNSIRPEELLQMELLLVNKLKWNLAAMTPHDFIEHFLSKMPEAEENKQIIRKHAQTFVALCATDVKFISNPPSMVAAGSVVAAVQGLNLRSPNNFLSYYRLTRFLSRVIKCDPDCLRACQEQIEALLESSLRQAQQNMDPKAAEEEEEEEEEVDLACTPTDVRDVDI
Chain of Cyclin-dependent kinase/G2/mitotic-specific cyclin- 1 (P06493 whole entry): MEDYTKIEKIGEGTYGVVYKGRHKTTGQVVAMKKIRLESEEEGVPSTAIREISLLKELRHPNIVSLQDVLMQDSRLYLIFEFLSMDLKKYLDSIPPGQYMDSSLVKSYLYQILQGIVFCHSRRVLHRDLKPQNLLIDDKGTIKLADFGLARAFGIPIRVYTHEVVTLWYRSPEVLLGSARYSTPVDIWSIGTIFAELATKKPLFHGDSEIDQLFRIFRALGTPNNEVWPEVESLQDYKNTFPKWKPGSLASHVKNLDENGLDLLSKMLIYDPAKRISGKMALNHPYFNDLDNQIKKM
Chain of Cyclin-dependent kinase/G2/mitotic-specific cyclin- 1 (P14635 whole entry, further chain): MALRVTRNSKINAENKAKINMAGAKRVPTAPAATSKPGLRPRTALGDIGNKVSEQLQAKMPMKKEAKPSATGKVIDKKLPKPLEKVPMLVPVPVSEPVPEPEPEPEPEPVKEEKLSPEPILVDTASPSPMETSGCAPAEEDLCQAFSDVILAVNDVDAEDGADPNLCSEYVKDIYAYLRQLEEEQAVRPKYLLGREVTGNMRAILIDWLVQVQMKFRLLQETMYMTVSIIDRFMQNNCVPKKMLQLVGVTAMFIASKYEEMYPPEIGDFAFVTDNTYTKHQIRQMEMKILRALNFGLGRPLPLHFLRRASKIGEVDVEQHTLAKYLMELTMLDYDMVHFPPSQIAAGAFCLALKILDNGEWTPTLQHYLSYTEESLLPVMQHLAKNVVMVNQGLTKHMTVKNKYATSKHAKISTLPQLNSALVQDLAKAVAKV

IC50 [1]: 2000 nM
IC50 [2]: 8.8 µM
IC50 [3]: 720 nM
SMILES: C[C@@H](Nc1nc(N[C@H]2CC[C@H](N)CC2)nc2c1ncn2C1CCCC1)c1ccccc1 [2,6,9-trisubstituted adenine derivative]
